The values that follow come from US20090246152A1, “NARACTIN COMPOSITIONS FOR THE INHIBITION OF REACTIVE OXYGEN SPECIES” (Nu Skin International, Inc., priority 2008, published 2009).

Assay [1] has as its system arNOX. Kind of assay: arNOX inhibition, superoxide-dependent reduction of ferric cytochrome c with serum or buffy coats (Table 1). In kind it is biochemical. The settings on record: 25 μg/ml. The protocol:
Superoxide Production By Buffy Coats: Buffy coats, a mixture of lymphocytes and platelets. Such buffy coats are commercially available from, for example, Rockland ImmunoChemicals (Gilbertsville, Pa.). The blood samples were maintained at 4° C. prior to collection and assay. Ca. 10^7 cells were added to each assay. Cell numbers were determined using a hemocytometer.
Reduction of ferric cytochrome c by superoxide was employed as a standard measure of superoxide formation (Mayo, L. A. and Cumutte, J. (1990) Meth. Enzyme. 186, 567-575. 7. Butler, J, Koppenol, W. H. and Margollash, E. (1982) J. Biol. Chem. 257, 10747). This is a widely accepted method when coupled to superoxide dismutase inhibition for the measurement of superoxide generation. The assay consists of 150 μl serum or 40 μl buffy coats in PBSG buffer (8.06 g NaCl, 0.2 g KCl, 0.18 g Na2HPO4, 0.26 g KH2PO4, 0.13 g CaCl2, 0.1 g MgCl2 1.35 g glucose dissolved in 1000 ml deionized water, adjusted to pH 7.4, filtered and stored at 4° C.) Rates were determined using an SLM Aminco DW-2000 spectrophotometer (Milton Roy, Rochester, N.Y., USA) in the dual wave length mode of operation with continuous measurements over 1 min every 1.5 min. After 45 min, test compounds were added and the reaction was continued for 45 min. After 45 min. a millimolar extinction coefficient of […] was used for reduced ferricytochrome c. Extracts were made of the compounds in water unless otherwise indicated.

Assay [2] concerns arNOX. The assay can be described thus: arNOX activity of saliva (person), ferricytochrome c reduction. In kind it is biochemical, human. Conditions: for inhibition of arNOX activity of saliva: 1 mg/ml, saliva from person; for augmentation of low activity N. tazetta powder: FIGS. 1a and 1b; for arNOX inhibition (result in words): substance or extract alone.
Protocol: Of the mixture, 60 μl was added to at total of three ml of assay mixture containing saliva as the arNOX activity source.
The assay consists of 150 μl serum or 40 μl buffy coats in PBSG buffer (8.06 g NaCl, 0.2 g KCl, 0.18 g Na2HPO4, 0.26 g KH2PO4, 0.13 g CaCl2, 0.1 g MgCl2 1.35 g glucose dissolved in 1000 ml deionized water, adjusted to pH 7.4, filtered and stored at 4° C.) Rates were determined using an SLM Aminco DW-2000 spectrophotometer (Milton Roy, Rochester, N.Y., USA) in the dual wave length mode of operation with continuous measurements over 1 min every 1.5 min. After 45 min, test compounds were added and the reaction was continued for 45 min. After 45 min. a millimolar extinction coefficient of 19.1 cm^−1 was used for reduced ferricytochrome c. Extracts were made of the compounds in water unless otherwise indicated.

As for `CC1=C(/C=C/C(C)=C/C=C/C(C)=C/C=C/C=C(C)/C=C/C=C(C)/C=C/C2=C(C)C(=O)[C@@H](O)CC2(C)C)C(C)(C)C[C@H](O)C1=O` [Natural astaxanthin, astaxanthin], the “ArNOX ACTIVITY % OF NO ADDITION” value in the assay on arNOX [1] (Ethanol) stood at 62%.
As to `O=C(NO)c1ccccc1O` [SHAM, salicyl hydroxamate], in the assay with arNOX [2], the “inhibition of arNOX activity of saliva” value is given as “greater than 90%” and the “augmentation of low activity N. tazetta powder” value is “notably decreased arNOX activity”. Further, the “arNOX activity after addition to N. tazetta powder extract” value with arNOX [2] (saliva of person, FIG. 1a) is given as “nearly complete inhibition”. The “concentration at which inhibition of arNOX activity is largely complete” value with arNOX [2] (saliva, FIG. 7) was determined as 11 mg/mL.
Turning to `O=C(O)c1ccccc1O` [Salicylic acid, salicylic acid], in the assay on arNOX [2], the “inhibition of arNOX activity of saliva” value is “about 50%” and the “arNOX inhibition (result in words)” value is reported as “found to inhibit arNOX activity”.
Turning to `CC(=O)Oc1ccccc1C(=O)O` [aspirin, reference compound], the “arNOX inhibition (result in words)” value with arNOX [2] was “did not inhibit arNOX activity”.
`OCc1ccccc1O[C@@H]1O[C@H](CO)[C@@H](O)[C@H](O)[C@H]1O` [salicin]: the “augmentation of arNOX inhibition of mixtures of Schizandra chinensis powder and N. tazetta powder/extract” value with arNOX [2] (1 mg/ml salicin, FIGS. 10a, 10b) is “active in augmenting the arNOX inhibition”. For the same compound, the “active concentration relative to SHAM (Naractin 1) or salicylic acid (Naractin 2)” value in the assay on arNOX [2] (FIG. 9) is reported as “active at a ten-fold lower concentration”. Further, in the assay with arNOX [2], the “augmentation of low activity N. tazetta powder” value is on record as “notably decreased arNOX activity” and the “arNOX inhibition (result in words)” value is listed as “active as a single agent”. In addition, the “concentration at which maximum inhibition of arNOX activity is achieved” value with arNOX [2] (saliva, FIG. 9) came to 1 mg/mL.
Regarding `CC1=C(/C=C/C(C)=C/C=C/C(C)=C/C=C/C=C(C)/C=C/C=C(C)/C=C/C2=C(C)CCCC2(C)C)C(C)(C)CCC1` [β-Carotene], the “ArNOX ACTIVITY % OF NO ADDITION” value in the assay on arNOX [1] (Ethanol) came out at 68%; in the assay on arNOX [1] (Water), 28%.
